Assay results taken from patent US20250262167A1, “COMPOUNDS, TARGETS AND PATHWAYS FOR MACROPHAGE MODULATION” (Massachusetts Institute of Technology, priority 2020, published 2025).

System: mouse bone marrow macrophages (BMMs)
Test: Development and function of TAM/M2-like macrophages in vitro (qPCR, flow cytometry)
Assay type: cell-based
Protocol: DEGs were identified by edgeR at P<0.05 with at least 2 fold-change. Data for genes that were not classified as differentially expressed are plotted in black. […] Mouse BMMs were cultured in normal medium with or without 2.5 μM thiostrepton for 24 hrs (group 1), or cultured in B16F10 tumor cell conditioned medium (CM) with or without 2.5 μM thiostrepton for 24 hrs (group 2), or cultured with B16F10 tumor cell CM for 24 hrs first and then treated with 2.5 μM thiostrepton for another 24 hrs (group 3). The transcript levels of the indicated genes were quantified by qPCR. Data were summarized from two independent experiments. […] Mouse BMMs were treated with thiostrepton for 24 hrs. Untreated and treated macrophages were co-cultured with equal number of B16F10 melanoma cells for 12 hrs. The number of tumor cells were quantified by flow cytometry after subtracting macrophages from total number of cells. Data were summarized from three independent experiments. ** P<0.01 by T-test.
Expression of MHCII, CD80, iNOS, Arg1 and CD206 were quantified by flow cytometry. Shown are representative staining profiles of treated (red) and untreated (dark) TAMs from two independent experiments. […] Alternatively, mouse BMMs were polarized with IL-4/IL-13 (group 3) or lactic acid (group 5) for 24 hrs first and then either not treated or treated with […] thiostrepton for another 24 hrs. The transcript levels of the indicated genes were quantified by qPCR. Data are summarized from two independent experiments.
Mouse BMMs were not treated or treated with […] thiostrepton for 24 hours in normal medium (group 1) or in the presence of IL4/IL13 (group 2), or mouse BMMs were polarized with IL4/IL13 for 24 hours and then either not treated or treated with […] thiostrepton for 24 hours (group 3). RNA was isolated and the transcript levels of the indicated genes were quantified by PCR. Data, shown as mean±s.d., were summarized from two independent experiments. * P<0.05 and ** P<0.01 by T-test. […] Data are shown as mean±s.e.m. FIGS. 19C-19D show flow cytometry analysis of TAM (F4/80^+CD11b^+Ly6C^−Ly6G^−), inflammatory monocytes (F4/80′^intCD11b^+Ly6C^+Ly6G^−) and monocytes (F4/80^−CD11b^+Ly6C^+Ly6G^+) in the tumors of mice treated with DMSO, TA99, cucurbitacin I, and cucurbitacin I plus TA99 18 days after tumor engraftment. Shown are representative F4/80 versus CD11b staining profiles gating on CD45+ cells and MHCII histograms gating on macrophages from c.
Mouse bone marrow-derived macrophages (mBMM) were prepared as described previously^54. Briefly, fresh bone marrow cells were isolated from B6 mice. Cells were plated into 6-well plate with 1×10^6/mL in complete RPMI with 2-mercaptoethanol and cultured for 6 days with fresh medium change every 2 days. mBMMs were differentiated to resemble TAMs in the presence of 10 ng/mL mIL-4 and mIL-13 (Peprotech) or 25 mM lactate acid for 24 hrs or tumor conditioned medium (CM). To prepare CM, 70% confluent B16F10 cultured were replaced with fresh medium and the tumor medium was collected and filtered ([…]) 24 hrs later. The mixture of 3 volumes of tumor medium with 1 volume of complete RPMI for mBMM serves as the CM. Expression of Arg, Fizz1 and Vegfa were quantified by qPCR to assess the development of TAMs. Other genes of Tnf, Il1b, Nos2, Cxcl2, Ccl5, Ym1 and Tgfb serve as macrophage activating markers. To assay the tumor growth inhibition, mBMMs (10,000 cells per well in 96 well plate) were treated with thiostrepton for 24 hrs and then cocultured with equal number of B16 melanoma cells in fresh complete RPMI for 12 hrs. The conditioned medium treated or not treated with thiostrepton were collected and filtered. The numbers of B16 melanoma cells were cultured for 12 hrs with conditioned medium or conditioned medium heated at 95° C. for 5 min. Tumor cells were quantified by flow cytometry to determine the macrophage-dependent killing function. […]

[1] = BMMs in B16F10 conditioned medium, 2.5 μM, 24 hrs, qPCR
[2] = BMMs in B16F10 conditioned medium, flow cytometry
[3] = IL-4/IL-13 and lactic acid-polarized BMMs, qPCR

C=C(NC(=O)C(=C)NC(=O)c1csc(C2=N[C@@H]3c4csc(n4)[C@H]4NC(=O)c5csc(n5)[C@H]([C@](C)(O)[C@@H](C)O)NC(=O)[C@H]5CSC(=N5)/C(=C/C)NC(=O)[C@H]([C@@H](C)O)NC(=O)c5csc(n5)[C@]3(CC2)NC(=O)[C@H](C)NC(=O)C(=C)NC(=O)[C@H](C)NC(=O)[C@H]([C@@H](C)CC)N[C@@H]2C=Cc3c([C@H](C)O)cc(nc3[C@H]2O)C(=O)O[C@@H]4C)n1)C(N)=O [Thiostrepton]
expression of M1-associated genes Tnf, Il1b, Cxcl2 and Nos2 [1]: up-regulated | expression of TAM/M2-associated genes Arg1, Fizz1, Vegfa, Ym1 and Tgfb [1]: inhibited | ARG1 [2]: down-regulation | MHCII, CD80 and iNOS [2]: up-regulation | expression of Arg1, Fizz1, Ym1 and Tgfb [3]: inhibited | expression of Tnf, Il1b, Cxcl2 and Ccl5 [3]: elevated
